SMILES strings stand for the structures. Like-named read-outs stand apart in the source and are kept apart here.

One experiment deals with WDR5 protein (Homo sapiens (Human), UniProt P61964). Nature of the experiment: Surface Plasmon Resonance (SPR) assay. Conditions: SPR; for residence time: τ=1/koff, read-out: Residence Time (t, min). It counts as binding.
A further experiment addresses MLL1-WRAD2 complex (Homo sapiens (Human), UniProt P61964). In words: MLL1-WRAD2 enzyme assay (in vitro methyl transferase assay). Format: biochemical. Conditions: MLL1-WRAD2 assay; read-out: In vitro MLL1 activity (IC50). As to the method: Reaction was initiated with 1 μM 3H-SAM and incubated for 1 hour at 30° C. Reaction mixture was transferred to P81 filter-paper and washed with PBS before detection.

Setting [1] is: Table 1, read-out: WDR5 binding affinity (KD).
[2] abbreviates: Table 2, read-out: WDR5 binding affinity SPR (KD).

Description for WDR5 protein: Exemplary compounds of the application were dissolved in 100% DMSO at 10 mM, assayed fresh, and then stored at −20° C. for repeat studies and other experiments. Full length WDR5 with an N-terminal His tag and C-terminal AviTag (Avidity Inc.) was expressed in E. coli with coexpression of BirA to biotin label the protein in vivo. Purification was via Ni-NTA. The purified WDR5 protein has a molecular weight of 41976 Da.
SPR studies were performed using a Biacore™ T200 instrument (GE Health Sciences Inc.). Biotinylated WDR5 protein (approximately 3000RU) was stably captured to streptavidin coupled SA chips according to the manufacture's protocol (GE Health Sciences Inc.). The running buffer used was HBS-EP (20 mM Hepes pH 7.4, 150 mM NaCl, 3 mM EDTA, 0.05% P-20) plus 5% DMSO with a flow rate of 40p1/min. For SPR analysis, 5 different concentrations of each exemplary compound of the application were sprayed into 96 or 384 well plates using an HP D300 digital dispenser. […] Curve fitting and KD calculations were performed with the Biacore T200 Evaluation software (GE Health Sciences Inc).

For orientation: Kd means the constant that tells how readily two partners part at equilibrium. A word on the residence time: it is how long the partners stay bound on average. As a reminder, the IC50 is the point on the concentration scale where inhibition reaches its midpoint. Regarding `Cc1cc(C(=O)Nc2cc(-c3cc(CN4CCOCC4)ccc3F)ccc2N2CCN(C)CC2)cc(C(F)(F)F)c1F` [Example 41, 4-fluoro-N-(2′-fluoro-4-(4-methylpiperazin-1-yl)-5′-(morpholinomethyl)-[1,1′-biphenyl]-3-yl)-3-methyl-5-(trifluoromethyl)benzamide], the dissociation constant Kd at WDR5 protein (setting [1]) and at WDR5 protein (setting [2]) was 0.055 µM each time. Besides, the residence time at WDR5 protein is 0.77 min. Besides, the IC50 at MLL1-WRAD2 complex was above 30 µM.
On to `CN1CCN(c2ccc(-c3cc(CNC4CCC(F)(F)CC4)ccc3F)cc2NC(=O)c2c[nH]c(=O)cc2C(F)(F)F)CC1` [Example 42, N-(5′-(((4,4-difluorocyclohexyl)amino)methyl)-2′-fluoro-4-(4-methylpiperazin-1-yl)-[1,1′-biphenyl]-3-yl)-6-oxo-4-(trifluoromethyl)-1,6-dihydropyridine-3-carboxamide], for which the dissociation constant (Kd) at WDR5 protein (setting [1]) and on WDR5 protein (setting [2]) was 0.005 µM each time. Also, the residence time on WDR5 protein came to 4.43 min. In addition, the IC50 at MLL1-WRAD2 complex was determined as 2.28 µM.
With `CN1CCN(c2ccc(-c3cc(CN(C)C4COC4)ccc3F)cc2NC(=O)c2c[nH]c(=O)cc2C(F)(F)F)CC1` [Example 43, N-(2′-fluoro-5′-((methyl(oxetan-3-yl)amino)methyl)-4-(4-methylpiperazin-1-yl)-[1,1′-biphenyl]-3-yl)-6-oxo-4-(trifluoromethyl)-1,6-dihydropyridine-3-carboxamide], the Kd on WDR5 protein (setting [1]) and at WDR5 protein (setting [2]) was 0.007 µM each time. Also, on WDR5 protein, the residence time was determined as 3.64 min. Also, the IC50 on MLL1-WRAD2 complex stood at 3.25 µM.
With `CN1CCN(c2ccc(-c3cc(CN4CCOCC4)ccc3F)cc2NC(=O)c2ccc(O)cc2C(F)(F)F)CC1` [Example 44, N-(2′-fluoro-4-(4-methylpiperazin-1-yl)-5′-(morpholinomethyl)-[1,1′-biphenyl]-3-yl)-4-hydroxy-2-(trifluoromethyl)benzamide], the Kd on WDR5 protein (setting [1]) and at WDR5 protein (setting [2]) was 0.069 µM in each case. The residence time on WDR5 protein was found to be 0.23 min. Moreover, on MLL1-WRAD2 complex, the IC50 was above 30 µM.
`CN1CCN(c2ccc(-c3cc(CN4CCOCC4)ccc3F)cc2NC(=O)c2cc(O)cc(F)c2F)CC1` [Example 48, 2,3-difluoro-N-(2′-fluoro-4-(4-methylpiperazin-1-yl)-5′-(morpholinomethyl)-[1,1′-biphenyl]-3-yl)-5-hydroxybenzamide]: the Kd at WDR5 protein (setting [1]) and on WDR5 protein (setting [2]) was 0.093 µM throughout. Moreover, on WDR5 protein, the residence time was 0.61 min. On MLL1-WRAD2 complex, the IC50 was 21.3 µM.
Take `C[C@@H]1CN(c2ccc(-c3cc(CN4CCOCC4)cnc3F)cc2NC(=O)c2c[nH]c(=O)cc2C(F)(F)F)C[C@H](C)N1C` [Example 60, N-(5-(2-fluoro-5-(morpholinomethyl)pyridin-3-yl)-2-((3S,5R)-3,4,5-trimethylpiperazin-1-yl)phenyl)-6-oxo-4-(trifluoromethyl)-1,6-dihydropyridine-3-carboxamide]: the Kd on WDR5 protein (setting [1]) and at WDR5 protein (setting [2]) was 0.007 µM in each case. For the same molecule, the residence time on WDR5 protein stood at 9.5 min. On MLL1-WRAD2 complex, the IC50 turned out to be 1.41 µM.
For the molecule `CN1CCN(c2ccc(-c3cc(CN4CCOCC4)cnc3F)cc2NC(=O)c2c[nH]c(=O)cc2C(F)(F)F)CC1` [Example 61, N-(5-(2-fluoro-5-(morpholinomethyl)pyridin-3-yl)-2-(4-methylpiperazin-1-yl)phenyl)-6-oxo-4-(trifluoromethyl)-1,6-dihydropyridine-3-carboxamide], the Kd at WDR5 protein (setting [1]) and on WDR5 protein (setting [2]) was 0.007 µM throughout. Also, the residence time at WDR5 protein came out at 2.29 min. The IC50 on MLL1-WRAD2 complex came to 4.49 µM.
Turning to `CCN1CCN(c2ccc(-c3cc(CN4CCOCC4)ccc3F)cc2NC(=O)c2c[nH]c(=O)cc2C(F)(F)F)CC1` [Example 62, N-(4-(4-ethylpiperazin-1-yl)-2′-fluoro-5′-(morpholinomethyl)-[1,1′-biphenyl]-3-yl)-6-oxo-4-(trifluoromethyl)-1,6-dihydropyridine-3-carboxamide], the Kd at WDR5 protein (setting [1]) and on WDR5 protein (setting [2]) was above 0.2 µM throughout. Also, the IC50 at MLL1-WRAD2 complex is 13.5 µM.
For `CN1CCN(c2ccc(-c3cc(CN4CCOCC4)ccc3F)cc2NC(=O)c2c[nH]c(=O)cc2C(F)(F)F)CC1CO` (stereo not shown) [Example 65, N-(2′-fluoro-4-(3-(hydroxymethyl)-4-methylpiperazin-1-yl)-5′-(morpholinomethyl)-[1,1′-biphenyl]-3-yl)-6-oxo-4-(trifluoromethyl)-1,6-dihydropyridine-3-carboxamide], the Kd at WDR5 protein (setting [1]) and at WDR5 protein (setting [2]) was 0.0094 µM each time. Also, the residence time at WDR5 protein was 9.93 min. The half-inhibitory concentration (IC50) on MLL1-WRAD2 complex was found to be 7.3 µM.
Turning to `CN1CCN(c2ncc(-c3cc(CN4CCOCC4)ccc3F)cc2NC(=O)c2c[nH]c(=O)cc2C(F)(F)F)CC1` [Example 84, N-(5-(2-fluoro-5-(morpholinomethyl)phenyl)-2-(4-methylpiperazin-1-yl)pyridin-3-yl)-6-oxo-4-(trifluoromethyl)-1,6-dihydropyridine-3-carboxamide], the Kd at WDR5 protein (setting [1]) and on WDR5 protein (setting [2]) was 0.022 µM in each case. Also, on MLL1-WRAD2 complex, the half-maximal inhibitory concentration (IC50) was above 30 µM.
In the case of `CNC(=O)c1ccc(F)c(-c2ccc(N3C[C@@H](C)N(C)[C@@H](C)C3)c(NC(=O)c3c[nH]c(=O)cc3C(F)(F)F)c2)c1` [Example 90, N-(2′-fluoro-5′-(methylcarbamoyl)-4-((3S,5R)-3,4,5-trimethylpiperazin-1-yl)-[1,1′-biphenyl]-3-yl)-6-oxo-4-(trifluoromethyl)-1,6-dihydropyridine-3-carboxamide], the figures for the Kd at WDR5 protein (setting [1]) and at WDR5 protein (setting [2]) were 0.0065 µM and 0.0064 µM, respectively. Also, the residence time at WDR5 protein stood at 3 min. Further, the IC50 at MLL1-WRAD2 complex was 1.09 µM.
Regarding `C[C@@H]1CN(c2ccc(-c3cc(C(=O)NC4CC4)ccc3F)cc2NC(=O)c2c[nH]c(=O)cc2C(F)(F)F)C[C@H](C)N1C` [Example 93, N-(5′-(cyclopropylcarbamoyl)-2′-fluoro-4-((3S,5R)-3,4,5-trimethylpiperazin-1-yl)-[1,1′-biphenyl]-3-yl)-6-oxo-4-(trifluoromethyl)-1,6-dihydropyridine-3-carboxamide], the Kd was 0.0031 µM at WDR5 protein (setting [1]) and 0.003 µM on WDR5 protein (setting [2]). Further, the residence time on WDR5 protein was determined as 9.6 min. Moreover, the IC50 on MLL1-WRAD2 complex came out at 0.197 µM.
For `C[C@H]1CN(c2ccc(-c3ncccc3F)cc2NC(=O)c2c[nH]c(=O)cc2C(F)(F)F)CCN1C` [Example 96, (S)—N-(2-(3,4-dimethylpiperazin-1-yl)-5-(3-fluoropyridin-2-yl)phenyl)-6-oxo-4-(trifluoromethyl)-1,6-dihydropyridine-3-carboxamide], the figures for the Kd at WDR5 protein (setting [1]) and at WDR5 protein (setting [2]) were 0.0026 µM and 0.003 µM, respectively. Further, at MLL1-WRAD2 complex, the IC50 is 2.53 µM.
In the case of `CN1CCN(c2ccc(-c3cc(CN4CCOCC4)ccc3F)c(F)c2NC(=O)c2c[nH]c(=O)cc2C(F)(F)F)CC1` [Example 99, N-(2,2′-difluoro-4-(4-methylpiperazin-1-yl)-5′-(morpholinomethyl)-[1,1′-biphenyl]-3-yl)-6-oxo-4-(trifluoromethyl)-1,6-dihydropyridine-3-carboxamide], the Kd at WDR5 protein (setting [1]) and on WDR5 protein (setting [2]) was 0.014 µM each time. In addition, the residence time on WDR5 protein was 2.2 min. Moreover, the IC50 on MLL1-WRAD2 complex stood at 3.98 µM.
Take `CN1CCN(c2ccc(-c3cc(C(=O)N(C)C4CCCCC4)ccc3F)cc2NC(=O)c2c[nH]c(=O)cc2C(F)(F)F)CC1` [Example 110, N-(5′-(cyclohexyl(methyl)carbamoyl)-2′-fluoro-4-(4-methylpiperazin-1-yl)-[1,1′-biphenyl]-3-yl)-6-oxo-4-(trifluoromethyl)-1,6-dihydropyridine-3-carboxamide]: the Kd on WDR5 protein (setting [1]) was determined as 0.0042 µM; on WDR5 protein (setting [2]), 0.004 µM. For the same molecule, the residence time at WDR5 protein came to 7.2 min. The IC50 at MLL1-WRAD2 complex turned out to be 0.607 µM.
Consider `C[C@@H]1CN(c2ccc(-c3cc(C(=O)N(C)C4CCCCC4)ccc3F)cc2NC(=O)c2c[nH]c(=O)cc2C(F)(F)F)C[C@H](C)N1C` [Example 111, N-(5′-(cyclohexyl(methyl)carbamoyl)-2′-fluoro-4-((3S,5R)-3,4,5-trimethylpiperazin-1-yl)-[1,1′-biphenyl]-3-yl)-6-oxo-4-(trifluoromethyl)-1,6-dihydropyridine-3-carboxamide], for which the Kd at WDR5 protein (setting [1]) is 0.0024 µM; on WDR5 protein (setting [2]), 0.024 µM. At WDR5 protein, the residence time turned out to be 34 min. For the same molecule, at MLL1-WRAD2 complex, the IC50 came out at 0.203 µM.
The like results for `C[C@@H]1CN(c2ccc(-c3cc(CN(C)C4COC4)c(F)cc3F)cc2NC(=O)c2c[nH]c(=O)cc2C(F)(F)F)C[C@H](C)N1C` [Example 113, N-(2′,4′-difluoro-5′-((methyl(oxetan-3-yl)amino)methyl)-4-((3S,5R)-3,4,5-trimethylpiperazin-1-yl)-[1,1′-biphenyl]-3-yl)-6-oxo-4-(trifluoromethyl)-1,6-dihydropyridine-3-carboxamide] were, in that order, 0.0082 µM, 0.008 µM, 5.5 min and 2.1 µM.
Turning to `C[C@@H]1CN(c2ccc(-c3c(F)ccc(CNC4CCCCC4)c3F)cc2NC(=O)c2c[nH]c(=O)cc2C(F)(F)F)C[C@H](C)N1C` [Example 114, N-(3′-((cyclohexylamino)methyl)-2′,6′-difluoro-4-((3S,5R)-3,4,5-trimethylpiperazin-1-yl)-[1,1′-biphenyl]-3-yl)-6-oxo-4-(trifluoromethyl)-1,6-dihydropyridine-3-carboxamide], the Kd at WDR5 protein (setting [1]) and at WDR5 protein (setting [2]) was 0.013 µM each time. On WDR5 protein, the residence time was 4.3 min. Further, the IC50 at MLL1-WRAD2 complex stood at 11.1 µM.
As for `CC1CN(c2ccc(-c3cc(C(=O)NC4CCCCC4)ccc3F)cc2NC(=O)c2c[nH]c(=O)cc2C(F)(F)F)CC(C)N1C` (stereo not shown) [Example 124, N-(5′-(cyclohexylcarbamoyl)-2′-fluoro-4-(3,4,5-trimethylpiperazin-1-yl)-[1,1′-biphenyl]-3-yl)-6-oxo-4-(trifluoromethyl)-1,6-dihydropyridine-3-carboxamide], the Kd on WDR5 protein (setting [1]) and on WDR5 protein (setting [2]) was 0.0017 µM throughout. The residence time on WDR5 protein came out at 20.6 min. Further, at MLL1-WRAD2 complex, the half-maximal inhibitory concentration (IC50) was found to be 0.293 µM.

Source of the values: patent US11174250B2, “Substituted carboxamides as inhibitors of WDR5 protein-protein binding” (PROPELLON THERAPEUTICS INC., priority 2016, dated 2021).
